US4922021A, “New alkylene diamine derivatives” (BASF Aktiensellschaft, priority 1981, dated 1990)

Key:
[1] = test system: aconitin-induced arrhythmia; assay: animal or person; details: Mus musculus, ip, read-out: Delay in time of appearance of arrhythmia
[2] = test system: aconitin-induced arrhythmia; details: mouse, in vivo; for Delay in the appearance time of arrhythmia: po, 100 mg/kg
[3] = J. Med. Chem. 6, 705 (1963); cited from earlier work
[4] = test system: right ventricle; assay: Electrophysiological tests on isolated rabbit heart, right ventricle; set-up: species or system rabbits; details: 2 mg/l, average
Procedure: (§1) Heart of rabbits of both sexes, weighing 1-2 kg, were removed, the right and left auricles and a segment of the right ventricle were prepared and placed into a vessel filled with nutrient solution. Bipolar platinum electrodes (a stimulating electrode and a lead electrode) were placed onto the organ strips, and the electric stimulus threshold and the speed of impulse condution were measured. The effective refractory period determined on the basis of the maximum driving frequency.

[5] = test system: myocardial contractile force, arterial blood pressure and pulse rate; assay: Inotropic effects (myocardial contractile force) in anaesthetized cats; format: in vivo; details: i.v.; for Contractility, change: basal 100
Procedure: Cats were anaesthetized with chloralose-urethane, a cannula was lead into the femoral artery, and the cannula was connected, through a Statham P 23 Db pressure sensor, to a Hellige recorder, where the arterial blood pressure and the pulse rate were recorded. The animals were respirated artifically, their chests were opened, and a strain gage was sutured on the left heart. The strain gage was connected to the Hellige recorder, and the variations in cardiac contractile force were recorded. The test compounds were administered to the animals intravenously through a cannula.

[6] = test system: fibrillation threshold of the heart; assay: Determination of the fibrillation threshold in anaesthetized cats; format: in vivo
Text: The chests of the cats were opened under chloralose-urethane anaesthesia a bipolar stimulating electrode was fixed onto the heart, and the heart was stimulated electrically with a frequency of 20 Hz, under continuously increasing current strength, until a fibrillo-flattern could be observed. This current strength was regarded as the fibrillation threshold of the animal.

[7] = in vivo; details: mouse, ip
[8] = test system: systemic and pulmonary circulation; assay: Effects on the systemic and pulmonary circulation of awake cats; format: in vivo; details: i.v., 1.0 mg/kg; for Pulmonary arterial mean pressure, change: basal 13; for Arterial blood pressure, change: basal 102; for Pulse/minute, change: basal 190-200
Text: Cats were anaesthetized with pentobarbital, and cannulas were placed into the carotis artery and, through the jugular vein, into the pulmonary artery. An additional cannula was placed into the jugular vein for the administration of the test compound. The cannulas were filled up with heparin in order to avoid blood clotting. Thereafter the wounds were sutured, and the cannulas were led below a bandage placed around the neck of the animal. 3 days after this operation the systemic arterial blood pressure, the pulmonary arterial pressure and the pulse rate of the awake animals were measured with a Hellige recorder, connected to the cannulas through a Statham P 23 Db type pressure transducer.

[9] = test system: barium chloride-induced arrhythmia; assay: Barium chloride-induced arrhythmia in awake rabbits; format: in vivo; details: 2 mg/kg
Procedure: The compounds to be tested were administered intravenously to the animals 3 minutes after treating them with barium chloride, and the effect was recorded. It was regarded as a positive protecting effect when the compound suspended the arrhythmic condition for at least 3 minutes.

[10] = test system: ouabain-induced arrhythmia; assay: Ouabain-induced arrhythmia in anaesthetized dogs; format: in vivo
Procedure: Anaesthetized dogs of both sexes were treated intravenously with an infusion of 60 /ug/kg of ouabain to provoke arrhythmia, and the arrhythmic state was maintained with an ouabain dose 60 times less than the initial. In this way a ventricular tachycardia or tachyarrhythmia lasting for more than 180 minutes was provoked. The compounds were tested during this period. The period of recovered normal sinus rhythm was recorded, and when a compound exerted protective effect for more than 30 minutes, this fact was regarded as complete protection. The tests were performed essentially according to the method of Piascik et al. [Can.
Examination of the anti-arrhythmic effect in dogs anaesthetized with a 30
of pentobarbital sodium and treated with ouabain

[11] = test system: left auricle; assay: Electrophysiological tests on isolated rabbit heart, left auricle; set-up: species or system rabbits; details: 2 mg/l, average
Procedure: as §1

In the case of Cc1cccc(C)c1N(C)CC(C)N(C)C (stereo not shown) [1-[N-methyl-N-(2,6-dimethylphenyl)-amino]-2-dimethylamino-propane], the change in vivo at 50 mg/kg [1] is reported as 78%.

With CCC(N)CNc1c(C)cccc1C (stereo not shown) [1-(2,6-dimethylphenyl-amino)-2-amino-butane] the “Delay in the appearance time of arrhythmia” value (“Delay in the appearance time” below) [2] was “+33.0%”, the change in vivo at 10 mg/kg [1] was 3% and the change in vivo at 25 mg/kg [1] was 40.8%. For the same compound, the change in vivo at 50 mg/kg [1] was 104% and the change in vivo at 75 mg/kg [1] was 149%.

For CCN(CCN)c1c(C)cccc1C [N-ethyl-N-(2,6-dimethylphenyl)-ethylenediamine], the hypotensive effects [3] is listed as “hypotensive effects”.

In the case of Cc1cccc(C)c1NCC(C)N(C)C (stereo not shown) [1-(2,6-dimethylphenyl-amino)-2-dimethylamino-propane], the “Change of the conduction time” value [4] is reported as “+12%”, the “Change of the effective refractory period” value [4] is reported as “+18%” and the “Change of the electric stimulus threshold” value [4] is reported as “+6%”. For the same compound, the “Arterial blood pressure, change” value ([5]; 0.5 mg/kg) was -7 mmHg, the “Pulse/minute, change” value ([5]; 0.5 mg/kg) was “+10 /minute” and the “Contractility, change” value ([5]; 0.5 mg/kg) was -5%. For the same compound, the “Arterial blood pressure, change” value ([5]; 1.0 mg/kg) was -10 mmHg, the “Pulse/minute, change” value ([5]; 1.0 mg/kg) was “+15 /minute” and the “Arterial blood pressure, change” value ([5]; 2.0 mg/kg) was -30 mmHg. The “Pulse/minute, change” value ([5]; 2.0 mg/kg) was -10 min⁻¹, the “Arterial blood pressure, change” value ([5]; 5.0 mg/kg) was -40 mmHg and the “Pulse/minute, change” value ([5]; 5.0 mg/kg) was -25 min⁻¹. The “Contractility, change” value ([5]; 5.0 mg/kg) was -33%, the “Effect on the fibrillation threshold” value ([6]; i.v., 0.5 mg/kg) was “+8.6%” and the “Effect on the fibrillation threshold” value ([6]; i.v., 1.0 mg/kg) was “+12.2%”. The “Effect on the fibrillation threshold” value ([6]; i.v., 2.0 mg/kg) was “+27.0%”, the “Effect on the fibrillation threshold” value ([6]; i.v., 4.0 mg/kg) was “+53.9%” and the “column headed by drawing 10 (apparently LD50/ED50)” value ([2]; ip) was 5.7. The “Delay in the appearance time” value [2] was “+74.0%”, the LD50 [7] was 114 mg/kg and the “Pulmonary arterial mean pressure, change” value [8] was “+2.8 mmHg”. The “Arterial blood pressure, change” value [8] was “+2 mmHg”, the “Pulse/minute, change” value [8] was -9 min⁻¹ and the change in vivo at 10 mg/kg [1] was 17.2%. It also gave a change in vivo at 25 mg/kg [1] of 72.7%, a change in vivo at 50 mg/kg [1] of 138% and a change in vivo at 75 mg/kg [1] of 212%. For the same compound, the “Protecting effect, number of animals” value ([9]; i.v., arrhythmia suspended for at least 3 minutes) was 5/10, the “Average time of partial suspension” value ([10]; i.v., 0.5 mg/kg) was 0.4 min and the “Complete suspension, number of cases” value ([10]; i.v., 0.5 mg/kg, protection > 30 min = complete) was 0/15. For the same compound, the “Average time of partial suspension” value ([10]; i.v., 1.0 mg/kg) was 1.5 min, the “Complete suspension, number of cases” value ([10]; i.v., 1.0 mg/kg, protection > 30 min = complete) was 0/15 and the “Average time of partial suspension” value ([10]; i.v., 2.0 mg/kg) was 5.7 min. The “Complete suspension, number of cases” value ([10]; i.v., 2.0 mg/kg, protection > 30 min = complete) was 4/15, the “Average time of partial suspension” value ([10]; i.v., 4.0 mg/kg) was 6.4 min and the “Complete suspension, number of cases” value ([10]; i.v., 4.0 mg/kg, protection > 30 min = complete) was 3/12. The “Average time of partial suspension” value ([10]; i.v., 8.0 mg/kg) was 10.0 min, the “Complete suspension, number of cases” value ([10]; i.v., 8.0 mg/kg, protection > 30 min = complete) was 5/9 and the “Change of the conduction time” value [11] was “+12%”. The “Change of the effective refractory period” value [11] was “+20%” and the “Change of the electric stimulus threshold” value [11] was “+32%”.

With Cc1cccc(C)c1OCC(C)N.Cl (stereo not shown) [1-(2,6-Dimethylphenoxy)-2-aminopropane hydrochloride, reference compound] the “Change of the conduction time” value [4] was “+11%”, the “Change of the effective refractory period” value [4] was “+28%” and the “Change of the electric stimulus threshold” value [4] was “+14%”. The “Arterial blood pressure, change” value ([5]; 0.5 mg/kg) was -45 mmHg, the “Pulse/minute, change” value ([5]; 0.5 mg/kg) was -40 min⁻¹ and the “Contractility, change” value ([5]; 0.5 mg/kg) was -29%. The “Arterial blood pressure, change” value ([5]; 1.0 mg/kg) was -40 mmHg, the “Pulse/minute, change” value ([5]; 1.0 mg/kg) was -50 min⁻¹ and the “Contractility, change” value ([5]; 1.0 mg/kg) was -32%. For the same compound, the “Arterial blood pressure, change” value ([5]; 2.0 mg/kg) was -60 mmHg, the “Pulse/minute, change” value ([5]; 2.0 mg/kg) was -50 min⁻¹ and the “Contractility, change” value ([5]; 2.0 mg/kg) was -38%. The “Arterial blood pressure, change” value ([5]; 5.0 mg/kg) was -65 mmHg, the “Pulse/minute, change” value ([5]; 5.0 mg/kg) was -50 min⁻¹ and the “Contractility, change” value ([5]; 5.0 mg/kg) was -57%. The “Effect on the fibrillation threshold” value ([6]; in vivo, iv, 0.5 mg/kg) was “+9.4%”, the “Effect on the fibrillation threshold” value ([6]; in vivo, iv, 1 mg/kg) was “+12.9%” and the “Effect on the fibrillation threshold” value ([6]; in vivo, iv, 2 mg/kg) was “+24.8%”. The “Effect on the fibrillation threshold” value ([6]; in vivo, iv, 4 mg/kg) was “+34.0%”, the “Delay in the appearance time” value [2] was “+82.0%” and the “Pulmonary arterial mean pressure, change” value [8] was “+6 mmHg”. For the same compound, the “Arterial blood pressure, change” value [8] was -39 mmHg, the “Pulse/minute, change” value [8] was -66 min⁻¹ and the change in vivo at 5 mg/kg [1] was 3.5%. It also gave a change in vivo at 10 mg/kg [1] of 7.7%, a change in vivo at 25 mg/kg [1] of 33.3% and a change in vivo at 50 mg/kg [1] of 83.1%. For the same compound, the change in vivo at 75 mg/kg [1] was 162%, the “Protecting effect, number of animals” value ([9]; rabbit, in vivo, iv) was 4/10 and the “Average time of partial suspension” value ([10]; dog, in vivo, iv, 0.5 mg/kg) was 0.5 min. For the same compound, the “Complete suspension, number of cases” value ([10]; dog, in vivo, iv, 0.5 mg/kg) was 1/15, the “Average time of partial suspension” value ([10]; dog, in vivo, iv, 1 mg/kg) was 2.6 min and the “Complete suspension, number of cases” value ([10]; dog, in vivo, iv, 1 mg/kg) was 1/15. For the same compound, the “Average time of partial suspension” value ([10]; dog, in vivo, iv, 2 mg/kg) was 2.9 min, the “Complete suspension, number of cases” value ([10]; dog, in vivo, iv, 2 mg/kg) was 3/14 and the “Average time of partial suspension” value ([10]; dog, in vivo, iv, 4 mg/kg) was 1.4 min. The “Complete suspension, number of cases” value ([10]; dog, in vivo, iv, 4 mg/kg) was 4/9, the “Average time of partial suspension” value ([10]; dog, in vivo, iv, 8 mg/kg) was 10.3 min and the “Complete suspension, number of cases” value ([10]; dog, in vivo, iv, 8 mg/kg) was 2/5. For the same compound, the “Change of the conduction time” value [11] was “+24%”, the “Change of the effective refractory period” value [11] was “+32%” and the “Change of the electric stimulus threshold” value [11] was “+36%”.

For Cc1cccc(C)c1NCCN [N-(2,6-dimethylphenyl)-ethylenediamine], the hypotensive effects [3] is given as “hypotensive effects”.
